This note sets out measurements from PubChem BioAssay (NCI).

Test systems include A549 NSCLC; MOLT-4 leukemia; KM20L2 colon; MALME-3M melanoma; SW-620 colon; 786-0 renal; BT-549 breast; LOX IMVI melanoma; NCI/ADR-RES ovarian; SNB-78 CNS.
Test in all cases: DTP human tumour cell line panel, 48 h

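Where inhibition never reached the appropriate level, the endpoint shown equals the highest concentration tested. Otherwise, values were interpolated linearly from a five-concentration, 48-hour dose response in 96-well plates. Abbreviation: GI50, concentration required for 50% inhibition of growth. Definition used: TGI = concentration required for complete inhibition of growth.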 Where only a bound is given, the exact number is not on record here.

As for `CC1=C(c2cc(C(=O)Nc3nccs3)nc(NC#N)n2)Sc2ccccc2N1`, the TGI with A549 NSCLC, in the assay on MOLT-4 leukemia, in the assay on KM20L2 colon, with MALME-3M melanoma, in the assay on SW-620 colon and in the assay on 786-0 renal was greater than 100 µM each time.
For the compound `COc1cc(OC)cc(-c2cncn2-c2ccc(-c3nc4cc(OC)c(OC)c(OC)c4s3)cc2)c1`, the GI50 (usually the concentration at which growth is held to half of that of the control) in the assay on BT-549 breast is 6.71 µM; with LOX IMVI melanoma, 6.93 µM; with A549 NSCLC it was 5.59 µM; with MOLT-4 leukemia it was 4.1 µM; in the assay with NCI/ADR-RES ovarian it was 11 µM; in the assay with MALME-3M melanoma, 9.59 µM. Besides, the GI50 with SW-620 colon is 13.7 µM; in the assay on 786-0 renal, 10.3 µM. Further, the TGI (as a rule, the concentration at which net growth stops) is greater than 100 µM in the assay on BT-549 breast; greater than 100 µM in the assay on LOX IMVI melanoma; greater than 100 µM with A549 NSCLC; greater than 100 µM in the assay with MOLT-4 leukemia; greater than 100 µM with NCI/ADR-RES ovarian; 75.1 µM in the assay with MALME-3M melanoma. Further, the TGI with SW-620 colon and in the assay on 786-0 renal was greater than 100 µM in each case.
As for `O=C([O-])c1ccccc1Nc1ccccc1[O-].[Ni+3].[OH3+].[OH3+].[OH3+]`, the GI50 with LOX IMVI melanoma, in the assay with A549 NSCLC, with MOLT-4 leukemia, with SNB-78 CNS, with MALME-3M melanoma and in the assay with SW-620 colon was greater than 100 µM throughout. For the same compound, the GI50 in the assay on 786-0 renal was greater than 100 µM. Besides, the TGI in the assay on LOX IMVI melanoma, in the assay with A549 NSCLC, with MOLT-4 leukemia, with SNB-78 CNS, with MALME-3M melanoma and in the assay with SW-620 colon was greater than 100 µM throughout. In the assay on 786-0 renal, this compound registered a TGI greater than 100 µM.
Consider `CC(C)Oc1ccc(C(=O)N[C@H](CNC(=O)CN(C)C)Cc2ccc(-c3cn4cccc([C@H](C)O)c4n3)cc2)cc1Cl`, for which the GI50 was 0.068 µM in the assay with BT-549 breast; 0.0736 µM with LOX IMVI melanoma; 0.0507 µM with A549 NSCLC; 0.0441 µM in the assay on MOLT-4 leukemia; 2.64 µM in the assay on NCI/ADR-RES ovarian; 0.078 µM in the assay with MALME-3M melanoma. The values for the 50% growth inhibitory concentration (GI50) in the assay with SW-620 colon and in the assay on 786-0 renal were 0.0613 µM and 0.0578 µM, respectively. Moreover, the total growth inhibition concentration (TGI) in the assay with BT-549 breast came to 17.6 µM; in the assay on LOX IMVI melanoma, 14.5 µM; with A549 NSCLC, 22.1 µM; with MOLT-4 leukemia, 18 µM; in the assay with NCI/ADR-RES ovarian, 19.8 µM; in the assay with MALME-3M melanoma it was 16.3 µM. Further, the TGI in the assay on SW-620 colon came to 21.6 µM; in the assay on 786-0 renal it was 17.8 µM.
Take `CCN1CCN(C(=O)[C@]23CCC(C)(C)C[C@@H]2C2=CC[C@@H]4[C@@]5(C)C/C(=C/c6cccnc6)C(=O)C(C)(C)[C@@H]5CC[C@@]4(C)[C@]2(C)CC3)CC1`: the GI50 is 1.47 µM in the assay with BT-549 breast; 1.36 µM with LOX IMVI melanoma; 2.62 µM in the assay with A549 NSCLC; 1.03 µM with MOLT-4 leukemia; 1.57 µM with NCI/ADR-RES ovarian; 1.53 µM in the assay with MALME-3M melanoma. Also, the GI50 with SW-620 colon was 1.78 µM; with 786-0 renal, 1.6 µM. Besides, the total growth inhibition concentration (TGI) in the assay with BT-549 breast worked out at 2.88 µM; in the assay with LOX IMVI melanoma it was 2.73 µM; in the assay on A549 NSCLC, 13.4 µM; with MOLT-4 leukemia, 5.2 µM; in the assay on NCI/ADR-RES ovarian it was 3.46 µM; with MALME-3M melanoma, 2.91 µM. For the same compound, the results for the concentration for total growth inhibition (TGI) in the assay with SW-620 colon and with 786-0 renal were 3.88 µM and 3.08 µM, respectively.
As for `COc1ccc(/C=C/C(=O)c2ccc(Nc3ccnc4cc(Cl)ccc34)cc2)cc1`, the GI50 in the assay with BT-549 breast is greater than 100 µM; in the assay with LOX IMVI melanoma, greater than 100 µM; in the assay with A549 NSCLC, greater than 100 µM; in the assay on MOLT-4 leukemia, 4.35 µM; with NCI/ADR-RES ovarian, greater than 100 µM; in the assay on MALME-3M melanoma, greater than 100 µM. Also, the GI50 in the assay with SW-620 colon and in the assay with 786-0 renal was greater than 100 µM each time. Also, the TGI with BT-549 breast was greater than 100 µM; in the assay on LOX IMVI melanoma it was greater than 100 µM; in the assay on A549 NSCLC, greater than 100 µM; in the assay on MOLT-4 leukemia it was greater than 48.4 µM; with NCI/ADR-RES ovarian, greater than 100 µM; in the assay with MALME-3M melanoma it was greater than 100 µM. In addition, the concentration for total growth inhibition (TGI) in the assay on SW-620 colon and in the assay with 786-0 renal was greater than 100 µM in each case.
As for `O=c1[nH]c(/C=C(\O)c2ccncc2)nc2ccccc12`, the TGI in the assay with A549 NSCLC, with MOLT-4 leukemia, in the assay on SNB-78 CNS, in the assay on MALME-3M melanoma, with SW-620 colon and with 786-0 renal was greater than 100 µM each time.
In the case of `C[n+]1ccc(-c2c3nc(c(-c4ccc5c(ccc[n+]5C)c4)c4ccc([nH]4)c(-c4cc[n+](C)cc4)c4nc(c(-c5ccc6c(ccc[n+]6C)c5)c5ccc2[nH]5)C=C4)C=C3)cc1`, the GI50 in the assay on BT-549 breast is 35.9 µM; in the assay on LOX IMVI melanoma, greater than 50 µM; in the assay with A549 NSCLC it was 38.1 µM; in the assay with MOLT-4 leukemia, greater than 50 µM; with NCI/ADR-RES ovarian it was greater than 50 µM; in the assay with MALME-3M melanoma, greater than 50 µM. For the same compound, the GI50 with SW-620 colon and in the assay with 786-0 renal was greater than 50 µM in each case. The concentration for total growth inhibition (TGI) with BT-549 breast, in the assay on LOX IMVI melanoma, in the assay with A549 NSCLC, with MOLT-4 leukemia, in the assay with NCI/ADR-RES ovarian and in the assay with MALME-3M melanoma was greater than 50 µM throughout. Besides, the concentration for total growth inhibition (TGI) in the assay with SW-620 colon and with 786-0 renal was greater than 50 µM each time.
With `O=C(O)/C=C\C(=O)Nc1ccc2c(c1)C(=O)c1cc(F)ccc1-2`, the TGI in the assay with BT-549 breast, in the assay with LOX IMVI melanoma, in the assay on A549 NSCLC, in the assay on MOLT-4 leukemia, in the assay on NCI/ADR-RES ovarian and in the assay on MALME-3M melanoma was greater than 100 µM throughout. Further, the TGI in the assay with SW-620 colon and in the assay with 786-0 renal was greater than 100 µM in each case.
Consider `C[C@@]1(N2C(=O)OC[C@@H]2c2ccccc2)C(=O)N([C@H](CC(=O)N2CCC(N3CCCCC3)CC2)C(=O)NCc2cccc(C(F)(F)F)c2)[C@@H]1/C=C/c1ccccc1`, for which the GI50 in the assay on BT-549 breast was 3.29 µM; in the assay with LOX IMVI melanoma, 1.81 µM; with A549 NSCLC, 2.06 µM; with MOLT-4 leukemia, 2.26 µM; in the assay on NCI/ADR-RES ovarian, 10.2 µM; in the assay on MALME-3M melanoma, 1.83 µM. Moreover, the figures for the GI50 in the assay on SW-620 colon and in the assay with 786-0 renal were 1.98 µM and 1.81 µM, respectively. Also, the concentration for total growth inhibition (TGI) amounted to 9.33 µM in the assay on BT-549 breast; 3.5 µM with LOX IMVI melanoma; 4.23 µM in the assay with A549 NSCLC; 6.42 µM in the assay on MOLT-4 leukemia; 24 µM with NCI/ADR-RES ovarian; 3.54 µM in the assay with MALME-3M melanoma. Also, the results for the total growth inhibition concentration (TGI) in the assay on SW-620 colon and in the assay on 786-0 renal were 4.09 µM and 3.41 µM, respectively.
